Source: the supplement of paper PMC6331611
≈ marks a conversion by molar mass, not a printed value. Counter-ions that a name gives are not always drawn.

Assays:
[1] = system: Salmonella enterica serovar Typhimurium SL1344
[2] = system: Salmonella enterica serovar Typhimurium SL1344; test: intracellular MIC (10-fold luminescence reduction); higher = less potent; settings: RAW264.7 macrophages
RAW264.7 = test: cytotoxicity (LDH release relative to maximum lysis); higher = more toxic; settings: 50 µM; 2 h

Row | SMILES | MIC ([1]; LPM pH 5.8) | MIC ([1]; MHB) | MIC ([1]; MOPS glucose minimal medium) | intracellular MIC [2] | cytotoxicity (RAW264.7)
1 | CC(=O)OC1CN2CCC1CC2 (centres undefined) [ACECLIDINE] | > 50 µM | > 50 µM | > 50 µM | > 50 µM | 20.3%
2 | CCOC(=O)C1=C(COCCN)NC(C)=C(C(=O)OC)C1c1ccccc1Cl (centres undefined) [AMLODIPINE BESYLATE] | ≤ 0.78 µM | ≤ 0.78 µM | ≤ 0.78 µM | > 50 µM | 22.5%
3 | CO[C@H]1O[C@@H]2O[C@@]3(C)CC[C@H]4[C@H](C)CC[C@@H]([C@H]1C)[C@@]24OO3 [ARTEMETHER] | 50 µM (≈ 14.9 µg/mL) | > 50 µM | > 50 µM | 12.5 µM | 7.51%
4 | Nc1ncn([C@@H]2O[C@H](CO)[C@@H](O)[C@H]2O)c(=O)n1 [AZACITIDINE] | ≤ 0.78 µM | 25 µM (≈ 6.11 µg/mL) | ≤ 0.78 µM | ≤ 0.78 µM | 16.4%
5 | CC[C@H]1OC(=O)[C@H](C)[C@@H](O[C@H]2C[C@@](C)(OC)[C@@H](O)[C@H](C)O2)[C@H](C)[C@@H](O[C@@H]2O[C@H](C)C[C@H](N(C)C)[C@H]2O)[C@](C)(O)C[C@@H](C)CN(C)[C@H](C)[C@@H](O)[C@]1(C)O [AZITHROMYCIN] | ≤ 0.78 µM | ≤ 0.78 µM | ≤ 0.78 µM | ≤ 0.78 µM | 21.1%
6 | C[C@H]1[C@H](NC(=O)/C(=N\OC(C)(C)C(=O)O)c2csc(N)n2)C(=O)N1S(=O)(=O)O [AZTREONAM] | ≤ 0.78 µM | ≤ 0.78 µM | ≤ 0.78 µM | 1.56 µM | 6.82%
7 | CCCCC(=O)O[C@]1(C(=O)CO)[C@@H](C)C[C@H]2[C@@H]3CCC4=CC(=O)C=C[C@]4(C)[C@@]3(F)[C@@H](O)C[C@@]21C [BETAMETHASONE VALERATE] | > 50 µM | > 50 µM | > 50 µM | 12.5 µM | 6.63%
8 | O=C(CCCN1CCC(O)(c2ccc(Br)cc2)CC1)c1ccc(F)cc1 [BROMPERIDOL] | > 50 µM | > 50 µM | > 50 µM | ≤ 0.78 µM | 15%
9 | Oc1c(Br)cc(Br)c2cccnc12 [BROXYQUINOLINE] | ≤ 0.78 µM | 50 µM (≈ 15.1 µg/mL) | 50 µM (≈ 15.1 µg/mL) | > 50 µM | 15%
10 | COc1cc(CNC(=O)CCCC/C=C/C(C)C)ccc1O [CAPSAICIN] | > 50 µM | > 50 µM | > 50 µM | > 50 µM | 19.5%
11 | COC(=O)N/N=C/c1c[n+]([O-])c2ccccc2[n+]1[O-] [CARBADOX] | 25 µM (≈ 6.56 µg/mL) | > 50 µM | 50 µM (≈ 13.1 µg/mL) | ≤ 0.78 µM | 15.6%
12 | CCCCCCNC(=O)n1cc(F)c(=O)[nH]c1=O [CARMOFUR] | ≤ 0.78 µM | > 50 µM | ≤ 0.78 µM | 1.56 µM | 13.7%
13 | C=CC1=C(C(=O)O)N2C(=O)[C@@H](NC(=O)/C(=N\O)c3csc(N)n3)[C@H]2SC1 [CEFDINIR] | ≤ 0.78 µM | ≤ 0.78 µM | ≤ 0.78 µM | > 50 µM | 19.4%
14 | CO/N=C(\C(=O)N[C@@H]1C(=O)N2C(C(=O)OCOC(=O)C(C)(C)C)=C(/C=C\c3scnc3C)CS[C@H]12)c1csc(N)n1 [CEFDITORIN PIVOXIL] | 50 µM (≈ 31 µg/mL) | 50 µM (≈ 31 µg/mL) | 25 µM (≈ 15.5 µg/mL) | > 50 µM | 21%
15 | CO/N=C(\C(=O)N[C@@H]1C(=O)N2C(C(=O)O)=C(C[N+]3(C)CCCC3)CS[C@H]12)c1csc(N)n1 [CEFEPIME HYDROCHLORIDE] | ≤ 0.78 µM | ≤ 0.78 µM | ≤ 0.78 µM | ≤ 0.78 µM | 15.4%
16 | CO/N=C(\C(=O)N[C@@H]1C(=O)N2C(C(=O)O)=C(CSc3nnnn3C)CS[C@H]12)c1csc(N)n1 [CEFMENOXIME HYDROCHLORIDE] | 1.17 µM | ≤ 0.78 µM | ≤ 0.78 µM | 1.56 µM | 8.15%
17 | CO/N=C(\C(=O)N[C@@H]1C(=O)N2C(C(=O)O)=C(COC(C)=O)CS[C@H]12)c1csc(N)n1 [CEFOTAXIME SODIUM] | ≤ 0.78 µM | ≤ 0.78 µM | ≤ 0.78 µM | ≤ 0.78 µM | 7.17%
18 | CO[C@@]1(NC(=O)C2SC(=C(C(N)=O)C(=O)O)S2)C(=O)N2C(C(=O)O)=C(CSc3nnnn3C)CS[C@@H]21 (some centres undefined) [CEFOTETAN] | ≤ 0.78 µM | ≤ 0.78 µM | ≤ 0.78 µM | 1.56 µM | 7.79%
19 | CC(C)(O/N=C(\C(=O)N[C@@H]1C(=O)N2C(C(=O)[O-])=C(C[n+]3ccccc3)CS[C@H]12)c1csc(N)n1)C(=O)O [CEFTAZIDIME] | ≤ 0.78 µM | 12.5 µM (≈ 6.83 µg/mL) | ≤ 0.78 µM | > 50 µM | 20.8%
20 | Nc1nc(/C(=C/CC(=O)O)C(=O)N[C@@H]2C(=O)N3C(C(=O)O)=CCS[C@H]23)cs1 [CEFTIBUTEN] | ≤ 0.78 µM | ≤ 0.78 µM | ≤ 0.78 µM | > 50 µM | 21%
21 | CO/N=C(\C(=O)N[C@@H]1C(=O)N2C(C(=O)O)=C(CSC(=O)c3ccco3)CS[C@H]12)c1csc(N)n1 [CEFTIOFUR HYDROCHLORIDE] | ≤ 0.78 µM | ≤ 0.78 µM | ≤ 0.78 µM | ≤ 0.78 µM | 15.6%

Row | SMILES | MIC ([1]; LPM pH 5.8) | MIC ([1]; MHB) | MIC ([1]; MOPS glucose minimal medium) | intracellular MIC [2] | cytotoxicity (RAW264.7)
22 | CO/N=C(\C(=O)N[C@@H]1C(=O)N2C(C(=O)O)=C(CSc3nc(=O)c(O)nn3C)CS[C@H]12)c1csc(N)n1 [CEFTRIAXONE SODIUM TRIHYDRATE] | ≤ 0.78 µM | ≤ 0.78 µM | ≤ 0.78 µM | > 50 µM | 19.6%
23 | COc1ccc2cc1Oc1ccc(cc1)C[C@H]1c3c(cc4c(c3Oc3cc5c(cc3OC)CCN(C)[C@@H]5C2)OCO4)CCN1C [CEPHARANTHINE] | > 50 µM | > 50 µM | > 50 µM | > 50 µM | 13.1%
24 | CCCCCCCCCCCCCCCC[n+]1ccccc1 [CETYLPYRIDINIUM CHLORIDE] | 12.5 µM | 50 µM | 12.5 µM | ≤ 0.78 µM | 63%
25 | O=C(O)CCC(=O)OC[C@@H](NC(=O)C(Cl)Cl)[C@H](O)c1ccc([N+](=O)[O-])cc1 [CHLORAMPHENICOL SODIUM SUCCINATE] | 6.25 µM | 25 µM | 12.5 µM | ≤ 0.78 µM | 8.03%
26 | O=C(N[C@H](CO)[C@H](O)c1ccc([N+](=O)[O-])cc1)C(Cl)Cl [CHLORAMPHENICOL] | ≤ 0.78 µM | 12.5 µM (≈ 4.04 µg/mL) | 3.13 µM (≈ 1.01 µg/mL) | ≤ 0.78 µM | 8.21%
27 | Cc1nc2ccccc2n1Cc1ccc(Cl)cc1 [CHLORMIDAZOLE] | > 50 µM | > 50 µM | > 50 µM | ≤ 0.78 µM | 12.9%
28 | CC(C)NC(=N)NC(=N)Nc1ccc(Cl)cc1 [CHLOROGUANIDE HYDROCHLORIDE] | > 50 µM | > 50 µM | > 50 µM | > 50 µM | 6.72%
29 | Oc1c(Cl)cc(Cl)c2cccnc12 [CHLOROXINE] | ≤ 0.78 µM | 25 µM (≈ 5.35 µg/mL) | 25 µM (≈ 5.35 µg/mL) | > 50 µM | 20.5%
30 | CN(C)[C@@H]1C(O)=C(C(N)=O)C(=O)[C@@]2(O)C(O)=C3C(=O)c4c(O)ccc(Cl)c4[C@@](C)(O)[C@H]3C[C@@H]12 [CHLORTETRACYCLINE HYDROCHLORIDE] | ≤ 0.78 µM | 25 µM | 6.25 µM | ≤ 0.78 µM | 8.37%
31 | Cc1cc(C2CCCCC2)n(O)c(=O)c1 [CICLOPIROX OLAMINE] | ≤ 0.78 µM | > 50 µM | > 50 µM | > 50 µM | 15.5%
32 | CCn1nc(C(=O)O)c(=O)c2cc3c(cc21)OCO3 [CINOXACIN] | ≤ 0.78 µM | > 50 µM | > 50 µM | ≤ 0.78 µM | 8.11%
33 | O=C(O)c1cn(C2CC2)c2cc(N3CCNCC3)c(F)cc2c1=O [CIPROFLOXACIN] | > 50 µM |  | ≤ 0.78 µM | ≤ 0.78 µM | 21.5%
34 | NC1CCN(c2c(F)cc3c(=O)c(C(=O)O)cn(C4CC4)c3c2Cl)C1 (centres undefined) [CLINAFOXACIN HYDROCHLORIDE] | ≤ 0.78 µM | ≤ 0.78 µM | ≤ 0.78 µM | ≤ 0.78 µM | 15.8%
35 | Oc1c(I)cc(Cl)c2cccnc12 [CLIOQUINOL] | ≤ 0.78 µM | 50 µM (≈ 15.3 µg/mL) | 50 µM (≈ 15.3 µg/mL) | > 50 µM | 20%
36 | O=S(=O)(O)NC1CCCCC1 [CYCLAMIC ACID] | > 50 µM | > 50 µM | > 50 µM | > 50 µM | 7.97%
37 | CN1CCC(=C2c3ccccc3C=Cc3ccccc32)CC1 [CYPROHEPTADINE HYDROCHLORIDE] | > 50 µM | > 50 µM | > 50 µM | > 50 µM | 6.22%
38 | CN(C)[C@@H]1C(O)=C(C(N)=O)C(=O)[C@@]2(O)C(O)=C3C(=O)c4c(O)ccc(Cl)c4[C@@H](O)[C@H]3C[C@@H]12 [DEMECLOCYCLINE HYDROCHLORIDE] | ≤ 0.78 µM | 6.25 µM | 1.56 µM | ≤ 0.78 µM | 8.71%
39 | CN(C)CC(c1ccc(O)cc1)C1(O)CCCCC1 (centres undefined) [DESVENLAFAXINE SUCCINATE] | > 50 µM | > 50 µM | > 50 µM | 25 µM | 8.25%
40 | COc1ccc(Cc2cnc(N)nc2N)cc1OC [DIAVERIDINE] | 50 µM (≈ 13 µg/mL) | 1.56 µM (≈ 0.406 µg/mL) | 6.25 µM (≈ 1.63 µg/mL) | 1.56 µM | 6.9%
41 | CN1CCN(c2cc3c(cc2F)c(=O)c(C(=O)O)cn3-c2ccc(F)cc2)CC1 [DIFLOXACIN HYDROCHLORIDE] | ≤ 0.78 µM | ≤ 0.78 µM | ≤ 0.78 µM | 1.56 µM | 6.88%
